Like-named read-outs stand apart in the source and are kept apart here.
Experiments:
mPAD4 = mPAD4 (Mus musculus, UniProt Q9Z183); assay: mPAD4 RFMS PAD4 inhibition assay; assay type: biochemical; conditions: mPAD4, RFMS readout;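 for mPAD4 RFMS pIC50: grade E means pIC50 at most 4 and F means pIC50 4.0 to 5.0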
Experimental: (§1) Compounds of the present invention were assayed as inhibitors of PAD4 using the assay protocol described below.
(§2) Compound stock solutions were stored at RT. […] Final assay conditions were as follows:
(§3) Total incubation time: 65 mins at 37° C.
(§4) Stop solution: 40 μl 5% TCA in ACN
(§5) The compound numbers correspond to the compound numbers in Table 1. […] The term pIC50=−log(IC50). […] “NA” stands for “not assayed.”

hPAD4 = hPAD4 (Homo sapiens, UniProt Q9UM07); assay: hPAD4 RFMS (RapidFire mass spectrometry) PAD4 inhibition assay; assay type: biochemical; conditions: hPAD4 enzyme, RFMS readout;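 for hPAD4 RFMS pIC50: grade E means pIC50 at most 4 and F means pIC50 4.0 to 5.0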
Experimental: as §1, §2, §3, §4, §5

[1] = pIC50=−log(IC50), read-out: mPAD4 RFMS pIC50 (converted)
[2] = pIC50=−log(IC50), read-out: hPAD4 RFMS pIC50 (converted)

Sequence of mPAD4 (Q9Z183 whole entry): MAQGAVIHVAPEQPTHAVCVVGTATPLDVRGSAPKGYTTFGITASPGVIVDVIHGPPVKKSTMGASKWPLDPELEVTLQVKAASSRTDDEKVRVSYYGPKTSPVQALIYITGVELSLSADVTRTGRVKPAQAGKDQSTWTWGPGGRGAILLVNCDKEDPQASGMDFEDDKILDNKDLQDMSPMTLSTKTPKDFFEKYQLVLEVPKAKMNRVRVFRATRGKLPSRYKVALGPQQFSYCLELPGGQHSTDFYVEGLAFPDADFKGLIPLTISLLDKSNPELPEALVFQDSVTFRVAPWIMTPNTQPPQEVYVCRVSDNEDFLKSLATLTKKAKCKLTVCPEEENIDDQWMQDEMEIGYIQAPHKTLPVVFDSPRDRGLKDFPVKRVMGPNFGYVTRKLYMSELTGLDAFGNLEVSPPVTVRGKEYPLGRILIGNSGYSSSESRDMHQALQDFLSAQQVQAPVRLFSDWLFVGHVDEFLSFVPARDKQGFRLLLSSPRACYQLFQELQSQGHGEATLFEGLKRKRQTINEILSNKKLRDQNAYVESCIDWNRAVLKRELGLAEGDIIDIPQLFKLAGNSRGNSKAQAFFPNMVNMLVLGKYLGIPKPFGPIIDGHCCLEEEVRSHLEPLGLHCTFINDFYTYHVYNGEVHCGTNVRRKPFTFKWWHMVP
Sequence of hPAD4 (Q9UM07 whole entry): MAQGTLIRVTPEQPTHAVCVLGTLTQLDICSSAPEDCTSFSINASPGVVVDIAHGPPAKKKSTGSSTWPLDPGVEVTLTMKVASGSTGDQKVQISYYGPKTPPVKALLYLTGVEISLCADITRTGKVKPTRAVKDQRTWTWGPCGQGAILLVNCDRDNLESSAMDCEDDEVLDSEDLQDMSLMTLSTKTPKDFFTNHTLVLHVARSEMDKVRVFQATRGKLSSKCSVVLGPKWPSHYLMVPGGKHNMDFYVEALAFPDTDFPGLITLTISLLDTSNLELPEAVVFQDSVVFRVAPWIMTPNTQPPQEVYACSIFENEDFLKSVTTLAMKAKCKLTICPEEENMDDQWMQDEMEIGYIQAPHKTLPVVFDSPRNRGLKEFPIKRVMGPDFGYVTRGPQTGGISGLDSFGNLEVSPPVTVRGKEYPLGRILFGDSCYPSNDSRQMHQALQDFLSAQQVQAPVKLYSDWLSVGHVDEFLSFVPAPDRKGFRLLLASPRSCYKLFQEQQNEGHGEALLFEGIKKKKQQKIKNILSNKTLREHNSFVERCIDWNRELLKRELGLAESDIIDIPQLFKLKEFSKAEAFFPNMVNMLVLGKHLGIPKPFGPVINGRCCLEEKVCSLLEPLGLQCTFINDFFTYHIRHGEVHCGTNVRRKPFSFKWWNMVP

Structure (SMILES)	IC50 (mPAD4; [1]) [µM]	IC50 (mPAD4; read-out: mPAD4 RFMS IC50) [µM]	IC50 (hPAD4; [2]) [µM]	IC50 (hPAD4; read-out: hPAD4 RFMS IC50) [µM]	mPAD4 RFMS pIC50 (mPAD4; pIC50=−log(IC50))	hPAD4 RFMS pIC50 (hPAD4; pIC50=−log(IC50))
CCn1c(-c2nc3cc(C(=O)N4C[C@H]5CC[C@@H]4[C@@H]5N)cc(OC)c3n2C)cc2ccc(C(F)F)nc21 [Compound I-189, (1R,4R,7R)-2-{2-[6-(Difluoromethyl)-1-ethyl-1H-pyrrolo[2,3-b]pyridin-2-yl]-7-methoxy-1-methyl-1H-1,3-benzodiazole-5-carbonyl}-2-azabicyclo[2.2.1]heptan-7-amine]	< 1	< 1	< 1	< 1		
COc1cc(C(=O)N2CCC[C@@H](N)C2)cc2nc(-c3cc4ccc(C(F)(F)F)nc4n3CC3CC3)n(C)c12 [Compound I-197]	< 1	< 1	< 1	< 1		
COc1cc(C(=O)N2CCC(F)C(N)C2)cc2nc(-c3cc4cccnc4n3CC3CC3)n(C)c12 (stereo not shown) [Compound I-56]	1 to 10	1 to 5	1 to 10	1 to 5		
CCc1ccc2cc(-c3nc4cc(C(=O)N5CCC[C@@H](N)C5)cc(OC)c4n3CC)n(CC3CC3)c2n1 [Compound I-105, (3R)-1-{2-[1-(cyclopropylmethyl)-6-ethyl-1H-pyrrolo[2,3-b]pyridin-2-yl]-1-ethyl-7-methoxy-1H-1,3-benzodiazole-5-carbonyl}piperidin-3-amine]	< 1	< 1	< 1	< 1		
COc1cc(C(=O)N2C[C@@H](N)CC[C@@H]2C)cc2nc(-c3cc4cccnc4n3CC3CC3)n(C)c12 [Compound I-89]	10 to 100	> 10	10 to 100	> 10		
COc1cc(C(=O)N2C[C@H](N)CC[C@H]2CO)cc2nc(-c3cc4cccnc4n3CC3CC3)n(C)c12 (single isomer, unassigned) [Compound I-226]		> 10		> 10	E/F	E/F
COCCn1c(-c2nc3cc(C(=O)N4CCC[C@@H](N)C4)ccc3n2C)cc2ccc(OC)nc21 [Compound I-193]	1 to 10	1 to 5	1 to 10	1 to 5		
COC1CCN(C(=O)c2ccc3c(c2)nc(-c2cc4cccnc4n2CC2CC2)n3C)CC1N (racemic) [Compound I-62, 1-{2-[1-(cyclopropylmethyl)-1H-pyrrolo[2,3-b]pyridin-2-yl]-1-methyl-1H-1,3-benzodiazole-5-carbonyl}-4-methoxypiperidin-3-amine]	1 to 10	5 to 10	1 to 10	1 to 5		
COc1cc(C(=O)N2CC(O)(C3(N)CCCC3)C2)cc2nc(-c3cc4cccnc4n3CC3CC3)n(C)c12 [Compound I-84]	10 to 100	> 10	10 to 100	> 10		
COc1ccc2cc(-c3nc4cc(C(=O)N5CCC[C@@H](N)C5)cc(OC(F)F)c4n3C)n(CC3CC3)c2n1 [Compound I-104, (3R)-1-{2-[1-(cyclopropylmethyl)-6-methoxy-1H-pyrrolo[2,3-b]pyridin-2-yl]-7-(difluoromethoxy)-1-methyl-1H-1,3-benzodiazole-5-carbonyl}piperidin-3-amine]	< 1	< 1	< 1	< 1		
COc1cc(C(=O)N2CC3(CCC3N)C2)cc2nc(-c3cc4cccnc4n3CC3CC3)n(C)c12 (stereo not shown) [Compound I-85]	10 to 100	> 10	10 to 100	> 10		
CC(=O)Nc1ccnc2c1cc(-c1nc3cc(C(=O)N4CCC[C@@H](N)C4)ccc3n1C)n2CC1CC1 [Compound I-69, N-(2-{5-[(3R)-3-Aminopiperidine-1-carbonyl]-1-methyl-1H-1,3-benzodiazol-2-yl}-1-(cyclopropylmethyl)-1H-pyrrolo[2,3-b]pyridin-4-yl)acetamide]	10 to 100	> 10	1 to 10	< 1		
COCCn1c(-c2nc3cc(C(=O)N4C[C@H]5CC[C@@H]4[C@@H]5N)ccc3n2C)cc2ccc(OC)nc21 [Compound I-192]	1 to 10	5 to 10	< 1	< 1		

Source: patent publication US9963448B2, “Bicyclic inhibitors of PAD4” (Padlock Therapeutics, Inc., priority 2015, dated 2018)
